The record followed here is patent US6570018B2 (Pfizer Inc, priority 2000, dated 2003).

A short description of data set [1]: stability of crystalline form versus the anhydrous mesylate salt. The class given is physicochemical. The following applies: compared with the anhydrous mesylate salt.

Structures can show the parent of a compound that is named as a salt.

As to `C[C@@H](C(=O)c1ccc(OCc2ccccc2)cc1)N1CCC(O)(c2ccccc2)CC1`, the melting point fell in the range of 102.5 to 103.8 °C.
Consider `C[C@@H]([C@@H](O)c1ccc(O)cc1)N1CCC(O)(c2ccccc2)CC1` [mesylate salt trihydrate, (1S,2S)-1-(4-Hydroxyphenyl)-2-(4-hydroxy-4-phenylpiperidino)-1-propanol, Methanesulfonate Salt Trihydrate], for which the “stability of crystalline form / shelf life” value in data set [1] is listed as “more stable crystalline form than the anhydrous mesylate salt”.
